# Assay results published in paper PMC3350394, “Kinetic analysis and test-retest variability of the radioligand [^11C](R)-PK11195 binding to TSPO in the human brain - a PET study in control subjects” (EJNMMI Research, 2012).
# Several values for one entry are separate records, joined by “and”; a condition that tells them apart may be missing. Equal values may be shown once.
# Target: TSPO (Homo sapiens, UniProt P30536)
# Experiment: PET, kinetic compartment analysis (1TCM, 2TCM) with metabolite-corrected arterial input function
# Conditions: for BPND (k3/k4) Mean: mean of test and retest; for BPND (k3/k4) Retest / BPND (k3/k4) Test / VT (2TCM): mean(SD); for BPND (k3/k4) Retest / BPND (k3/k4) Test: 6 subjects; for ICC: BPND test-retest
# Experimental: Each subject was placed recumbent with the head in the PET system. A head fixation system with an individual plaster helmet was used. A cannula was inserted into the left radial artery and another into the right antecubital vein. A sterile phosphate buffer (pH = 7.4) containing radioligand was injected as a bolus over 2 s into the cubital vein. The cannula was then immediately flushed with a 10-mL saline solution. In each individual, the measurement was repeated after approximately 6 weeks.
# The PET system used was ECAT Exact HR 47 (Siemens/CTI, Knoxville, TN, USA), with an in-plane and an axial resolution of 3.6 and 4.0 mm, respectively, full width at half maximum (FWHM). The radioactivity in the brain was measured continuously for 60 min using a pre-programmed sequence of […] (20 s × 9, 30 s × 6, 180 s × 5, 300 s × 5). […] The images were reconstructed with a Hanning filter (FWHM = 2 mm) in a matrix of 128 × 128 × 47 voxels, yielding a voxel size of 2.03 × 2.03 × 3.125 mm. Attenuation correction was done using transmission scan data obtained for each subject.
# [^11C](R)-PK11195 binding to TSPO was quantified using kinetic compartment analyses with the metabolite-corrected arterial plasma curve as input function. Two compartment models (one- and two-tissue) were used to fit the model to the TACs. The fractional volume of blood present in the tissue volume and bolus time were estimated for each individual, each occasion, by fitting the whole brain TAC with a two-tissue compartment model.
# The one-tissue compartment model (1TCM) describes one compartment which is a composite of free, non-specifically and specifically bound radioligands. The two rate constants, K1 and k2, describe the influx and efflux rates across the blood-brain barrier, respectively.
# The two-tissue compartment model (2TCM) has been described in detail in the literature. The two-tissue compartments are defined as the radioactivity concentration of a nondisplaceable radioligand in the brain (CND) and the radioactivity concentration of a radioligand specifically bound to receptors (CB). In this model, four rate constants (K1, k2, k3 and k4) explain the time curves for radioligand in the brain. In short, the four rate constants were determined by curve fitting with a weighted non-linear least squares fitting technique with constraint-restricting parameters between 0 and 0.9. Each initial value for K1, k2, k3 and k4 was 0.5, 0.1, 0.5 and 0.5, respectively. The local minimum of the sum of the squared residuals was determined by iteration.
# Regional [^11C](R)-PK11195 binding was expressed using the concept of the total distribution volume (VT), which is defined by the following equation, using kinetic constants obtained from 2TCM [16, 20, 21].
# Specific [^11C](R)-PK11195 binding was expressed as binding potential relative to nondisplaceable binding (BPND) as follows:
# The fractional volume of blood present in the tissue volume was determined for each individual, each occasion. It was obtained by fitting whole brain TAC with a 2TCM with six parameters (K1, k2, k3, k4, fractional blood volume (VB) and time shift between plasma input function and PET TAC (tbolus)) and parameters VB and tbolus subsequently applied for each brain region.
# The reproducibility of two successive PET measurements was analysed by means of descriptive statistics (mean, range, SD, coefficient of variance (CV), difference in measurement (error in percent) and intra-class correlation coefficient (ICC)). The ICC was calculated from the between-subject and within-subject variations, using the expression: […]
# [1] = brainstem, BPND test-retest difference in measurements
# [2] = brainstem, VT (2TCM) test-retest
# [3] = caudate (L), BPND test-retest difference in measurements
# [4] = caudate (R), BPND test-retest difference in measurements
# [5] = cerebellum, BPND test-retest difference in measurements
# [6] = cerebellum, VT (2TCM) test-retest
# [7] = grey matter, cortex, BPND test-retest difference in measurements
# [8] = grey matter, 1TCM, retest (2), individual subjects 1-6
# [9] = grey matter, 1TCM, test (1), individual subjects 1-6
# [10] = grey matter, 1TCM, test (1), mean(SD/CV) of 6 subjects
# [11] = grey matter, 2TCM, retest (2), individual subjects 1-6
# [12] = grey matter, 2TCM, retest (2), mean(SD/CV) of 6 subjects
# [13] = grey matter, 2TCM, test (1), individual subjects 1-6
# [14] = grey matter, 2TCM, test (1), mean(SD/CV) of 6 subjects
# [15] = grey matter, VT (2TCM) test-retest
# [16] = putamen (L), BPND test-retest difference in measurements
# Chain of TSPO (P30536 whole entry): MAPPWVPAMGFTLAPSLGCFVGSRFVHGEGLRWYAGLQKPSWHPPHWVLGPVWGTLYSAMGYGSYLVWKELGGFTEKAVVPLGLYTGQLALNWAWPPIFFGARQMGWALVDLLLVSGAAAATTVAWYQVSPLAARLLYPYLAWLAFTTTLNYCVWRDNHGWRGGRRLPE
structure (smiles),measurement,setting,value
CC[C@@H](C)N([11CH3])C(=O)c1cc2ccccc2c(-c2ccccc2Cl)n1 [[^11C](R)-PK11195],influx rate constant K1,"2TCM, range",0.05 to 0.09
same,"BPND throughout the human brain, range","2TCM, regional means",1.11 to 2.21
same,BPND (k3/k4) Mean,"brainstem, 2TCM",2.09
same,BPND (k3/k4) Retest,"brainstem, 2TCM",2.18(0.33)
same,BPND (k3/k4) Test,"brainstem, 2TCM",2.00(0.35)
same,ICC,brainstem,-0.6
same,Error % mean(SD),[1],-13(31) %
same,Error range (%),[1],-45 to 26%
same,Error % mean(SD),[2],-13(10) %
same,Error range (%),[2],-29 to -1%
same,VT (2TCM),"brainstem, retest",0.74 (0.16)
same,VT (2TCM),"brainstem, test",0.86(0.18)
same,BPND (k3/k4) Mean,"caudate (L), 2TCM",1.68
same,BPND (k3/k4) Retest,"caudate (L), 2TCM",1.84(0.93)
same,BPND (k3/k4) Test,"caudate (L), 2TCM",1.52(0.43)
same,ICC,caudate (L),-0.05
same,Error % mean(SD),[3],-27(66) %
same,Error range (%),[3],-133 to 42%
same,BPND (k3/k4) Mean,"caudate (R), 2TCM",1.77
same,BPND (k3/k4) Retest,"caudate (R), 2TCM",2.21(1.19)
same,BPND (k3/k4) Test,"caudate (R), 2TCM",1.33(0.68)
same,ICC,caudate (R),0.01
same,Error % mean(SD),[4],-96(126) %
same,Error range (%),[4],-288 to12%
same,BPND (k3/k4) Mean,"caudate, 2TCM",1.65
same,BPND (k3/k4) Retest,"caudate, 2TCM",1.92(0.87)
same,BPND (k3/k4) Test,"caudate, 2TCM",1.37(0.55)
same,ICC,caudate,0.01
same,Error range (%),"caudate, BPND test-retest difference in measurements",-155 to 30%
same,Error % mean(SD),"caudate, VT (2TCM) test-retest",25(36) %
same,Error range (%),"caudate, VT (2TCM) test-retest",-35 to 62%
same,VT (2TCM),"caudate, retest",1.06 (0.24)
same,VT (2TCM),"caudate, test",0.88(0.13)
same,BPND (k3/k4) Mean,"cerebellum, 2TCM",1.33
same,BPND (k3/k4) Retest,"cerebellum, 2TCM",1.37(0.24)
same,BPND (k3/k4) Test,"cerebellum, 2TCM",1.29(0.19)
same,ICC,cerebellum,0.07
same,Error % mean(SD),[5],-8% and -8(20) %
same,Error range (%),[5],-21 to 32%
same,Error % mean(SD),[6],-1(18) %
same,Error range (%),[6],-32 to 24%
same,VT (2TCM),"cerebellum, retest",0.72 (0.16)
same,VT (2TCM),"cerebellum, test",0.74(0.18)
same,BPND (k3/k4) Mean,"grey matter, cortex, 2TCM",1.55
same,BPND (k3/k4) Retest,"grey matter, cortex, 2TCM",1.59(0.29)
same,BPND (k3/k4) Test,"grey matter, cortex, 2TCM",1.50(0.27)
same,ICC,"grey matter, cortex",0.47
same,Error % mean(SD),[7],5% and 5(18) %
same,Error range (%),[7],-24 to 25%
same,K1,[8],0.094 mL/cc/min and 0.035 mL/cc/min and 0.044 mL/cc/min and 0.045 mL/cc/min and 0.056 mL/cc/min and 0.057 mL/cc/min
same,k2,[8],0.111 min⁻¹ and 0.086 min⁻¹ and 0.108 min⁻¹ and 0.091 min⁻¹ and 0.099 min⁻¹ and 0.118 min⁻¹
same,k2,"grey matter, 1TCM, retest (2), mean(SD/CV) of 6 subjects",0.102(0.012/12) min^-1
same,K1,[9],0.062 mL/cc/min and 0.037 mL/cc/min and 0.042 mL/cc/min and 0.074 mL/cc/min and 0.054 mL/cc/min
same,k2,[9],0.086 min⁻¹ and 0.087 min⁻¹ and 0.111 min⁻¹ and 0.106 min⁻¹ and 0.116 min⁻¹ and 0.096 min⁻¹
same,K1,[10],0.055(0.014/25) mL/cc/min
same,k2,[10],0.100(0.012/12) min^-1
same,K1,[11],0.077 mL/cc/min and 0.129 mL/cc/min and 0.049 mL/cc/min and 0.067 mL/cc/min and 0.060 mL/cc/min and 0.073 mL/cc/min
same,k2,[11],0.287 min⁻¹ and 0.318 min⁻¹ and 0.246 min⁻¹ and 0.340 min⁻¹ and 0.239 min⁻¹ and 0.234 min⁻¹
same,k3,[11],0.059 min⁻¹ and 0.111 min⁻¹ and 0.062 min⁻¹ and 0.068 min⁻¹ and 0.065 min⁻¹
same,k4,[11],0.041 min⁻¹ and 0.076 min⁻¹ and 0.035 min⁻¹ and 0.032 min⁻¹ and 0.045 min⁻¹ and 0.044 min⁻¹
same,K1,[12],0.076 (0.028/37) mL/cc/min
same,k2,[12],0.277(0.045/16) min^-1
same,k3,[12],0.071(0.02/28) min^-1
same,k4,[12],0.046(0.016/34) min^-1
same,K1,[13],0.082 mL/cc/min and 0.048 mL/cc/min and 0.054 mL/cc/min and 0.094 mL/cc/min and 0.072 mL/cc/min
same,k2,[13],0.220 min⁻¹ and 0.245 min⁻¹ and 0.221 min⁻¹ and 0.264 min⁻¹ and 0.252 min⁻¹
same,k3,[13],0.061 min⁻¹ and 0.055 min⁻¹ and 0.040 min⁻¹ and 0.038 min⁻¹ and 0.076 min⁻¹ and 0.058 min⁻¹
same,k4,[13],0.033 min⁻¹ and 0.038 min⁻¹ and 0.023 min⁻¹ and 0.029 min⁻¹ and 0.067 min⁻¹ and 0.026 min⁻¹
same,K1,[14],0.072(0.018/25) mL/cc/min
same,k2,[14],0.237(0.019/8) min^-1
same,k3,[14],0.055(0.014/25) min^-1
same,Error % mean(SD),[15],-6(17) %
same,Error range (%),[15],-36 to 15%
same,VT (2TCM),"grey matter, retest",0.70 (0.17)
same,VT (2TCM),"grey matter, test",0.76(0.18)
same,BPND (k3/k4) Mean,"putamen (L), 2TCM",1.44
same,BPND (k3/k4) Retest,"putamen (L), 2TCM",1.60(0.67)
same,BPND (k3/k4) Test,"putamen (L), 2TCM",1.28(0.31)
same,ICC,putamen (L),0.02
same,Error % mean(SD),[16],-30(59) %
same,Error range (%),[16],-145 to 23%
